Marks after values point to notes of the source that are not given here.
Test system: C. albicans
Assay: in vivo antifungal activity, candidemia in mice infected with C. albicans
Design: species or system Albino male mice; Total Protein Mean ± SE: unit not given here
Conditions: for daily body weight / % change in daily body weight / Food consumption / Mortality / Water consumption: oral 12 mg/kg then 6 mg/ml
Experimental: To confirm that the water soluble form of the compound 4 has a biological activity as a novel antimicrobial agent, effectiveness of the compound 4 as a drug to treat candidemia in mice was investigated. The experiment was performed in Experimental Animal Care Center (EACC), College of Pharmacy, King Saud University, Riyadh. Fifty Albino male mice, weighing nearly 30±2 gram were used. The mice were arranged in five groups, each including ten mice caged together, given water, and feed ad libitum. Negative control and control group were infected intravenously with 0.2 ml of C. albicans suspension (10^6 CFU/mouse) and 0.2 ml of sterile normal saline (0.89% Nacl) respectively. The group treated with standard drug (fluconazole) was infected intravenously with 0.2 ml of C. albicans suspension (10^6 CFU/mouse) and treated (orally) by 12 mg/kg of fluconazole (loading dose) on the first day followed by 6 mg/ml for 2 weeks. The group treated with the investigated compound 4 was infected intravenously with C. albicans at 10^6 CFU/mouse (0.2 ml) and treated (orally) by 12 mg/kg of the compound 4 (loading dose) on the first day followed by 6 mg/ml for 2 weeks. To study the biological effects of compound 4, a fifth group was designed. In this group the mice were treated intravenously (I. V) with 12 mg/kg of the compound 4 on the first day followed by 6 mg/ml for 2 weeks. All doses of the standard drug and compound 4 were given twice daily.
The effectiveness of the previous treatments on some biological concepts were evaluated. The biological parameters included daily body weight (gm), mortality (%), food consumption (g/day/mouse), water consumption (ml/day/mouse), serum glutamic oxaloacetic transaminase [SGOT(AST) (U/L)], serum glutamic-pyruvic transaminase [SGPT(ALT)(U/L)], alkaline phosphatase (U/L), gamma-glutamyl transferase (GGT) (U/L), bilirubin (mg/dl)], cholesterol (mg/dl), triglycerides (mg/dl), high-density lipoprotein (HDL) (mg/dl), very-low-density lipoprotein (VLDL) (mg/dl), low-density lipoprotein (LDL) (mg/dl), lactate dehydrogenase (LDH) (U/L), glucose (mg/dl), total protein (mg/dl), malondialdehyde (MDA) (nmol/g), nonprotein sulfyhydryl (NP-SH) (nmol/g). Addition hematologic constituents including white blood cells (WBC) (cell/mm^3), red blood cells (RBC) (10^6/mm^3), hemoglobin (HGB) (g/dL), HCT, Platelets (PLT) (10^3/mm^3), mean corpuscular volume (MCV) (fL), mean corpuscular hemoglobin (MCH) (pg), mean corpuscular hemoglobin concentration (MCHC) (g/dL), neutrophils (%), lymphocytes (%), eosinophils (%) and monocytes (%)] were evaluated (Classics Lowry et al. 1951; Utley et al. 1967; Sedlak et al. 1968). SGOT (AST), SGPT (ALT), ALP, GGT, bilirubin LDH and total protein were estimated using Reflotron Plus Analyzer and Roche kits (Roche Diagnostics GmbH, Mannheim Germany) and United diagnostic kits assay. Hematological tests were performed by Mindray BC-2800VET auto Hematology Analyzer.

[1] = C. albicans-infected mice, day 1
[2] = C. albicans-infected mice, day 2
[3] = C. albicans-infected mice, day 3
[4] = C. albicans-infected mice, day 4
[5] = C. albicans-infected mice, day 5
[6] = C. albicans-infected mice, day 6
[7] = C. albicans-infected mice, day 7
[8] = C. albicans-infected mice, day 8
[9] = C. albicans-infected mice, day 9
[10] = C. albicans-infected mice, day 10
[11] = C. albicans-infected mice, day 11
[12] = C. albicans-infected mice, day 12
[13] = C. albicans-infected mice, day 13
[14] = C. albicans-infected mice, day 14
[15] = C. albicans-infected mice, day 15
[16] = blood, C. albicans-infected mice, oral 12 mg/kg then 6 mg/ml for 2 weeks
[17] = liver tissue, C. albicans-infected mice, oral 12 mg/kg then 6 mg/ml for 2 weeks
[18] = serum, C. albicans-infected mice, oral 12 mg/kg then 6 mg/ml for 2 weeks

For `CCOC(=O)CSC(=S)SCC(=O)OCC` [Compound 4, diethyl 2,2′-(thiocarbonylbis(sulfanediyl))diacetate], the daily body weight (C. albicans-infected mice, day 0) was 21.00 ± 0.36 gm, the “% change in daily body weight” value [1] was 2.38% and the Food consumption [1] was 4.5 g/day/mice. The Mortality [1] was 0%, the Water consumption [1] was 4.5 g/day/mice and the daily body weight [1] was 21.50 ± 0.26 gm. The “% change in daily body weight” value [2] was 4.76%, the Food consumption [2] was 4.6 g/day/mice and the Mortality [2] was 0%. The Water consumption [2] was 4.5 g/day/mice, the daily body weight [2] was 22.00 ± 0.25 gm and the “% change in daily body weight” value [3] was 6.19%. It also gave a Food consumption [3] of 4.7 g/day/mice, a Mortality [3] of 0% and a Water consumption [3] of 4.7 g/day/mice. For the same molecule, the daily body weight [3] was 22.3 ± 0.21 gm, the “% change in daily body weight” value [4] was 9.04% and the Food consumption [4] was 4.9 g/day/mice. It also gave a Mortality [4] of 0%, a Water consumption [4] of 4.9 g/day/mice and a daily body weight [4] of 22.90 ± 0.27 gm. The “% change in daily body weight” value [5] was 12.16%, the Food consumption [5] was 4.00 g/day/mice and the Mortality [5] was 10%. The Water consumption [5] was 4.2 g/day/mice, the daily body weight [5] was 23.55 ± 0.37 gm and the “% change in daily body weight” value [6] was 15.34%. The Food consumption [6] was 4.2 g/day/mice, the Mortality [6] was 10% and the Water consumption [6] was 4.6 g/day/mice. For the same molecule, the daily body weight [6] was 24.22 ± 0.32 gm, the “% change in daily body weight” value [7] was 17.46% and the Food consumption [7] was 4.2 g/day/mice. For the same molecule, the Mortality [7] was 10%, the Water consumption [7] was 5.7 g/day/mice and the daily body weight [7] was 24.66 ± 0.23 gm. For the same molecule, the “% change in daily body weight” value [8] was 18.45%, the Food consumption [8] was 4.3 g/day/mice and the Mortality [8] was 20%. For the same molecule, the Water consumption [8] was 4.6 g/day/mice, the daily body weight [8] was 24.87 ± 0.29 gm and the “% change in daily body weight” value [9] was 20.23%. The Food consumption [9] was 4.5 g/day/mice, the Mortality [9] was 20% and the Water consumption [9] was 4.6 g/day/mice. The daily body weight [9] was 25.25 ± 0.25 gm, the “% change in daily body weight” value [10] was 20.83% and the Food consumption [10] was 4.5 g/day/mice. The Mortality [10] was 20%, the Water consumption [10] was 4.8 g/day/mice and the daily body weight [10] was 25.37 ± 0.26 gm. The “% change in daily body weight” value [11] was 24.48%, the Food consumption [11] was 4.7 g/day/mice and the Mortality [11] was 30%. For the same molecule, the Water consumption [11] was 5.1 g/day/mice, the daily body weight [11] was 26.14 ± 0.26 gm and the “% change in daily body weight” value [12] was 25.17%. The Food consumption [12] was 5.0 g/day/mice, the Mortality [12] was 30% and the Water consumption [12] was 5.4 g/day/mice. The daily body weight [12] was 26.28 ± 0.28 gm, the “% change in daily body weight” value [13] was 29.93% and the Food consumption [13] was 5.14 g/day/mice. For the same molecule, the Mortality [13] was 30%, the Water consumption [13] was 5.5 g/day/mice and the daily body weight [13] was 27.28 ± 0.28 gm. The “% change in daily body weight” value [14] was 34.92%, the Food consumption [14] was 5.3 g/day/mice and the Mortality [14] was 30%. For the same molecule, the Water consumption [14] was 5.5 g/day/mice, the daily body weight [14] was 28.33 ± 0.49 gm and the “% change in daily body weight” value [15] was 36.50%. It also gave a Food consumption [15] of 5.5 g/day/mice, a Mortality [15] of 30% and a Water consumption [15] of 5.8 g/day/mice. For the same molecule, the daily body weight [15] was 28.66 ± 0.33 gm, the “Eosinophils Mean ± SE” value [16] was 1.30 ± 0.02% and the “HCT Mean ± SE” value [16] was 31.3 ± 0.42. For the same molecule, the “HGB Mean ± SE” value [16] was 9.8 ± 0.14 g/dL, the “Lymphocytes Mean ± SE” value [16] was 7.10 ± 0.07% and the “MCH Mean ± SE” value [16] was 26.3 ± 0.5 pg. For the same molecule, the “MCHC Mean ± SE” value [16] was 23.4 ± 1.0 g/dL, the “MCV Mean ± SE” value [16] was 53.7 ± 2.0 fL and the “Monocytes Mean ± SE” value [16] was 0.88 ± 0.07^b %. For the same molecule, the “Neutrophils Mean ± SE” value [16] was 24.1 ± 0.2%, the “PLT Mean ± SE” value [16] was 522.3 ± 10.1 10^3/mm^3 and the “RBC Mean ± SE” value [16] was 6.16 ± 0.1 10^6/mm^3. The “WBC Mean ± SE” value [16] was 7540.8 ± 87.3 Cell/mm^3, the “effect on mortality caused by C. albicans, in words” value (dose of 800 mg as the loading dose, followed by 400 mg/d for 2 week) was “reduced the mortality” and the MDA [17] was 4.57 ± 0.25***^b nmol/g. The “Total Protein” value [17] was 77.84 ± 2.37**^b g/l, the “Alkaline phosphatase Mean ± SE” value [18] was 354.66 ± 5.57 U/L and the “Bilirubin Mean ± SE” value [18] was 1.15 ± 0.03 mg/dL. The “Cholesterol Mean ± SE” value [18] was 159.8 ± 3.4 mg/dL, the “GGT Mean ± SE” value [18] was 7.18 ± 0.20 U/L and the “Glucose level Mean ± SE” value [18] was 166.83 ± 4.32**^b mg/dl. The “HDL Mean ± SE” value [18] was 26.9 ± 1.1 mg/dL, the “LDH Mean ± SE” value [18] was 220.98 ± 3.96**^b U/L and the “LDL Mean ± SE” value [18] was 105.9 ± 4.6 mg/dL. For the same molecule, the “SGOT(AST) Mean ± SE” value [18] was 169.33 ± 2.69 U/L, the “SGPT(ALT) Mean ± SE” value [18] was 83.50 ± 2.35 U/L and the “Total Protein Mean ± SE” value [18] was 4.91 ± 0.09. The “Triglycerides Mean ± SE” value [18] was 134.8 ± 3.8 mg/dL and the “VLDL Mean ± SE” value [18] was 26.9 ± 0.7 mg/dL.

— patent US9988348B1, “Synthesis and antimicrobial use of a trithiocarbonate derivative” (KING SAUD UNIVERSITY, priority 2017, dated 2018)
